Columns and labels:
NCI-H460 = experiment: Inhibition of non-small cell lung carcinoma (NCI-460) cell proliferation; assay type: functional, cell-based; conditions: Homo sapiens
HCT-116 = experiment: Inhibition of human colon carcinoma (HCT116) cell proliferation; assay type: functional, cell-based
[1] = molecular target: Cyclin-dependent kinase 4/cyclin D1 (Homo sapiens, UniProt P11802); experiment: Inhibitory activity against cyclin D1/ (cyclin dependent kinase) CDK4; assay type: protein-complex assay
Cyclin-dependent kinase 4/cyclin D1, sequence (P11802 whole entry): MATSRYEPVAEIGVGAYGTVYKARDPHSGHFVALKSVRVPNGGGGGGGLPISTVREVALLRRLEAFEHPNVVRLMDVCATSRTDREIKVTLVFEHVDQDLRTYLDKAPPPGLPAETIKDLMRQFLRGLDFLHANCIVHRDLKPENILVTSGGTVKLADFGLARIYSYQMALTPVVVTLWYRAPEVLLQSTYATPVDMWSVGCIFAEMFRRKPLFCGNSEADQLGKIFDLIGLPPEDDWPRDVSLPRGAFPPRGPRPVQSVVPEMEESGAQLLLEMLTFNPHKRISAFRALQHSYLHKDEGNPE
Cyclin-dependent kinase 4/cyclin D1, sequence (P24385 whole entry, further chain): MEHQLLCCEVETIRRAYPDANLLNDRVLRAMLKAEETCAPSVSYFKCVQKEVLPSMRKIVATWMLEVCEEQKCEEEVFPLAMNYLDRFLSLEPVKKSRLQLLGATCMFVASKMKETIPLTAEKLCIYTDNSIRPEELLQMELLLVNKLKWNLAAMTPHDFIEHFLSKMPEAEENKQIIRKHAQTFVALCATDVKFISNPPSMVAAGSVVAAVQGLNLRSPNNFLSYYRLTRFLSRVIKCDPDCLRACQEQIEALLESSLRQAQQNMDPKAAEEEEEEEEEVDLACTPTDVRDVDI

O=C1NC(=O)c2c1c1nc3ccccc3cc1c1[nH]c3ccccc3c21
IC50 (NCI-H460): 4040 nM
IC50 (HCT-116): 5510 nM
IC50 [1]: > 10000 nM

O=C1NC(=O)c2c1c1cnc3ccccc3c1c1c2c2ccccc2n1CCCO
IC50 [1]: 1190 nM

CN(C)CCCCn1c2ccccc2c2c3c(c4c5ccccc5cnc4c21)C(=O)NC3=O
IC50 [1]: 1140 nM

COc1ccc2c(c1)[nH]c1c3cnc4ccccc4c3c3c(c21)C(=O)NC3=O
IC50 (NCI-H460): 390 nM
IC50 [1]: 210 nM

O=C1NC(=O)c2c1c1c3ccccc3cnc1c1c2c2ccccc2n1CCCO
IC50 (NCI-H460): 410 nM
IC50 (HCT-116): 160 nM
IC50 [1]: > 2000 nM

O=C1NC(=O)c2c1c1c3ccccc3cnc1c1c2c2ccccc2n1CCCCO
IC50 [1]: 1150 nM

O=C1NC(=O)c2c1c1c3cccnc3ccc1c1[nH]c3ccccc3c21
IC50 (NCI-H460): 1910 nM
IC50 (HCT-116): 430 nM
IC50 [1]: > 200 nM

O=C1NC(=O)c2c1c1c3ccccc3ncc1c1[nH]c3cc(Cl)ccc3c21
IC50 (NCI-H460): 450 nM
IC50 (HCT-116): 650 nM
IC50 [1]: > 2000 nM

O=C1NC(=O)c2c1c1c(ccc3cccnc31)c1[nH]c3ccccc3c21
IC50 (NCI-H460): 3530 nM
IC50 (HCT-116): 800 nM
IC50 [1]: > 2000 nM

O=C1NC(=O)c2c1c1cnc3ccccc3c1c1[nH]c3ccccc3c21
IC50 (NCI-H460): 930 nM
IC50 (HCT-116): 1950 nM
IC50 [1]: > 10000 nM

O=C1NC(=O)c2c1c1c3ccccc3cnc1c1[nH]c3c(CCO)cccc3c21
IC50 [1]: > 2000 nM

CN(C)CCCn1c2ccccc2c2c3c(c4c5ccccc5cnc4c21)C(=O)NC3=O
IC50 (NCI-H460): 370 nM
IC50 (HCT-116): 310 nM
IC50 [1]: 170 nM

O=C1NC(=O)c2c1c1c3ccccc3ncc1c1[nH]c3ccccc3c21
IC50 (NCI-H460): 660 nM
IC50 (HCT-116): 390 nM
IC50 [1]: 683 nM

O=C1NC(=O)c2c1c1c3ccccc3cnc1c1[nH]c3ccccc3c21
IC50 [1]: > 2000 nM

O=C1NC(=O)c2c1c1c3ccncc3ccc1c1[nH]c3ccccc3c21
IC50 (NCI-H460): 74 nM
IC50 (HCT-116): 130 nM
IC50 [1]: 69 nM

From ChEMBL document CHEMBL1136670, “Synthesis of quinolinyl/isoquinolinyl[a]pyrrolo [3,4-c] carbazoles as cyclin D1/CDK4 inhibitors” (Bioorg Med Chem Lett, 2003)
